The source of these data is patent US11389456B2, “Compounds and methods for treating oxalate-related diseases” (OxaluRx, Inc., priority 2018, dated 2022).

In series [1] the target is recombinant full-length human hydroxyacid oxidase 1 (HAO1), the equivalent of hGOX (Homo sapiens (Human), UniProt Q9UJM8). Kind of series: In-vitro human glycolate oxidase (hGOX) assay (Amplex red/HRP fluorescence). The class given is biochemical.
Procedure: Biological Activity Assay: In-Vitro Human Glycolate Oxidase (hGOX) Assay
The in-vitro glycolate oxidase assay was performed using recombinant full-length human hydroxyacid oxidase 1 (HAO1), the equivalent of hGOX. […] Purified HAO1 was dissolved in assay buffer consisting of 10 mM NaCl, 110 mM KCl, 2 mM MgCl2, 50 mM HEPES (pH 7.4) and 0.01% Triton™ X-100.
The target in series [2] is glycolate oxidase (GOX) in HepaRG-CAR cells (Homo sapiens (Human), UniProt Q9UJM8). Kind of series: HepaRG-CAR cell-based assay for quantitation of glycolate oxidase inhibition (cellular glycolate flux, GC-MS). As to conditions: HepaRG-CAR cells, 500 μM glycolate, 48 hours incubation; read-out: IC50.
Series [3] is described as follows: Solubility in phosphate buffered saline (PBS), pH 7.4. Particulars: phosphate buffer (PBS), aqueous buffer, kinetic from dmso stock; phosphate buffered saline pH 7.4, 1% DMSO, 1 hour shaking at room temperature. The class given is physicochemical. In outline:
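DMSO stock (10 mM) diluted into 100 mM phosphate buffer pH 7.4, or into deionized distilled water for the aqueous assay, at 1% final DMSO and shaken 1 h at room temperature. After centrifugation, supernatants quantified by LC-MS/MS against a calibration curve with internal standard.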

Series [4] can be described thus: Metabolic stability in human liver microsomal preparation. The format is in vitro ADME. As to conditions: pH 7.4, human liver microsomes, NADPH, 37° C. In outline:
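Compound at 1.5 μM with 0.75 mg/mL human liver microsomes (concentrations before NADPH addition) in 0.1 M potassium phosphate, 1 mM EDTA, pH 7.4 was preincubated 5 min at 37 °C, then started with NADPH. Samples at 0, 5, 15, 30 and 45 min were quenched with acetonitrile/internal standard and analysed by LC/MS.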
A general note: Liver microsomes are vesicles of endoplasmic reticulum, rich in cytochrome P450 enzymes.

For series [5], the system named is CD1 mice administered 1% ethylene glycol. Kind of series: Mouse ethylene glycol model of hyperoxaluria, urinary oxalate. The class given is in vivo. Particulars: CD-1 mice, twice-daily oral gavage 50 mg/kg. How it is done:
Mouse Models of Hyperoxaluria for Determining In Vivo Efficacy of hGOX Inhibitors
Male CD1 mice, 6-8 weeks of age (Charles River Labs, Wilmington, Mass.) were administered 1% ethylene glycol ad libitum their drinking water for 14 days. The mice were housed in individual cages, fed ad libitum and 24-h urine collections were initiated on days 1, 5, 9 and 14 using a 15-rack metabolic cage system equipped with a CCS2000 chiller system (Hatteras Instruments, Cary, N.C.) to maintain the samples at 4° C. during collection. Hydrochloric acid (100 μL of 6N) added to the collection vials to acidify the samples and prevent degradation of oxalate before evaluation.
Urine samples were maintained at 4° C. and urinary oxalate concentrations were determined within 24 hours of sample collection using a Trinity Biotech oxalate assay kit (Catalog #591-D). The assay was an enzymatic method based on the oxidation of oxalate by oxalate oxidase followed by measurement of hydrogen peroxide (H2O2) produced during the peroxidase-catalyzed reaction. Briefly, a 1-mL aliquot of each sample was diluted with an equal volume of assay diluent to bring the pH to between 5.0 and 7.0, then placed into purifier tubes (provided in the kit) and mixed for 5 min. The tubes were centrifuged for 5 min at 2000 rpm (1500×g) and the supernatants collected for the oxalate assay. The procedure was specific for oxalate with no special equipment and was easily adaptable for clinical automated analyzers. Each assay included a standard curve prepared with a standardized oxalate control sample (included in the kit) and internal assay control samples for both a normal (0.2-0.3 mmol/L) and elevated (0.86-1.21 mmol/L) level of oxalate.
To evaluate in vivo efficacy, mice were dosed by once-daily oral gavage of compound I-002 in an appropriate vehicle (e.g., phosphate-buffered saline, pH 7.4) at a dosage of 100 mg/kg. […]
The effect of example I-001 in the ethylene glycol model using CD-1 mice was evaluated by twice-daily, oral gavage dosing at 50 mg/kg for 6 days (days 5-11). […]

≈ marks a conversion by molar mass, not a printed value.

Sequence of recombinant full-length human hydroxyacid oxidase 1 (HAO1), the equivalent of hGOX (Q9UJM8 whole entry): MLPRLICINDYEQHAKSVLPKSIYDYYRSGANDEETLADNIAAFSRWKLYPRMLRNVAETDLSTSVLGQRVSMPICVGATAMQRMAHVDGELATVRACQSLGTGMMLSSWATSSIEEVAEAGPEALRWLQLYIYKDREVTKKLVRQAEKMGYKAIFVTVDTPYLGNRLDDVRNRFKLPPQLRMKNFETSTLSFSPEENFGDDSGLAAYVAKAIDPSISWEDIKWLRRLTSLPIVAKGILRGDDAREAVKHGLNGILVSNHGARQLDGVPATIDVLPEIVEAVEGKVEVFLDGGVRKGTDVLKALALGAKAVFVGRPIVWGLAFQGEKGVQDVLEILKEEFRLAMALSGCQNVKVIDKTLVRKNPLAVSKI
Sequence of glycolate oxidase (GOX) in HepaRG-CAR cells (Q9UJM8 whole entry): as above

A word on the IC50: it is the concentration that gives 50% inhibition. By solubility is commonly meant how much of the substance goes into solution per volume. A low value points to little dissolved substance. As a reminder, the CLint scaled is the capacity of the preparation to metabolise the compound, expressed as a volume cleared per time. A lower CLint scaled goes with greater metabolic stability. Regarding `O=C(O)c1nn[nH]c1Sc1ccc(Cl)cc1` [Example I-001, 5-((4-chlorophenyl)thio)-1H-1,2,3-triazole-4-carboxylic acid], the concentration for half-maximal inhibition (IC50) in series [1] came out at 110 nM; in series [2], 1000 nM. In addition, in series [3], the solubility at 1 h stood at 94.5 µM (≈ 24.1 µg/mL). In series [4], this compound came in with a CLint scaled at 1 μM of 1.19 mL/min/kg. For the same compound, the half-life at 1 μM in series [4] (0-45 min, read-out: Metabolic Stability t1/2) was determined as 24.3 h. Further, the results for the “decrease of total urinary oxalate values (μmole/24 hr/mL)” value in series [5] (24-hour urine collection after 3 days of drug treatment) and in series [5] (24-hour urine collection after 6 days of drug treatment) were 24% and 32%, respectively.
